Measurements reported in PubChem BioAssay AID720512 (Broad Institute, 2013).
Activity calls are given as the source filed them. No rule for the calls is given here.

These compounds were tested against Toxin B (TcdB) glycohydrolase, Clostridioides difficile 630 (assay: TcdB glycohydrolase inhibitors, dose response, biochemical, cherry-pick, plate reader (AID 720512)). Conditions: recombinant TcdB glycohydrolase activity.

Row | SMILES | AC50
1 | S=C(NCCN1CCOCC1)Nc1ccc(Nc2ccccc2)cc1 | > 39 µM (inactive)
2 | O=C(c1ccccc1)c1coc2ccc(O)c(Cl)c12 | > 39 µM (inactive)
3 | c1ccc(OCCSc2nnc3sc4ccccc4n23)cc1 | > 39 µM (inactive)
4 | CCOc1cc(/C=N/n2cnnc2)ccc1O | > 39 µM (inactive)
5 | COc1cc(/C=N/NC(=O)c2cccc([N+](=O)[O-])c2)ccc1O | > 39 µM (inactive)
6 | CCOc1ccc(/C=N/n2nnnc2N)cc1O | > 39 µM (inactive)
7 | Cc1ccc2nc(-c3ccc4c(c3)OCCO4)cn2c1 | > 39 µM (inactive)

Same assay, conditions: recombinant TcdB glycohydrolase activity, at 19.5 µM (top of the series)

Row | SMILES | activity change, negative = inhibition
8 | CC(=O)C(Sc1nccc(-c2cccs2)n1)C(C)=O | inactive
9 | COc1ccc(C2=NS(=O)(=O)N(C)C(C(=O)NCc3ccc4c(c3)OCO4)=C2)cc1 | inactive
10 | NC(=O)Nc1ccc(Nc2ccccc2)cc1 | inactive
11 | Cc1nn(C2CC(O)C(O)C(CO)O2)c(=O)[nH]c1=O (centres undefined) | inactive
12 | C[C@H](CO)N1C[C@H](C)[C@@H](CN(C)C(=O)Nc2ccc(C(F)(F)F)cc2)Oc2c(cccc2N(C)C)C1=O | inactive
13 | COc1ccc(-c2cn3cc(C)ccc3n2)cc1F | inactive
14 | CCNC(=O)C[C@H]1CC[C@@H]2[C@@H](COc3ccc(NC(C)=O)cc3C(=O)N2C)O1 | inactive
15 | CCc1ccc(NC(=O)c2cc(C)on2)cc1 | inactive
16 | COc1ccc(C(=O)Nc2c(-c3cccs3)c(=O)c3ccccc3n2C)cc1 | inactive
17 | COc1cc(Cn2nnc3ccccc32)ccc1O | inactive
18 | Cc1cc(NC(=O)CCCN2C(=O)c3cccc4cccc(c34)C2=O)no1 | inactive
19 | COc1ccc(C=C2CCC3C(=O)CCCC3(C)C2=O)cc1 (centres undefined) | inactive
20 | O=C(C[C@H]1CC[C@@H]2[C@H](COC[C@@H](O)CN2C(=O)Nc2ccc(Cl)c(Cl)c2)O1)NCc1ccncc1 | inactive
21 | O=c1onc(-c2ccccc2)n1Cc1ccc([N+](=O)[O-])cc1 | inactive
22 | Cc1ccc(NNC(=O)c2ccno2)c(C)c1 | inactive
23 | O=C(CCC(=O)N1CCSc2ccccc21)Nc1cccc(F)c1 | inactive
24 | CCOC(=O)/C=c1/s/c(=C/c2ccc3cc(OC)ccc3c2)c(=O)n1CC(=O)NCC1CCCO1 (centres undefined) | inactive
25 | CN(C)c1ccc(C(=O)OCC#CCSc2nnc(-c3cccc4ccccc34)o2)cc1 | inactive
26 | COc1ccc(/C=C2\CCCCC2=O)cc1 | inactive
27 | CC(C)Cc1[nH]c(=O)c(C#N)c2c1CCC2 | inactive
28 | CCC(=O)c1cn(CC(=O)Nc2cccc(C)c2C)c2ccccc12 | inactive
29 | Cc1ccc2c(c1)/C(=C/c1ccccc1C)C(=O)N2 | inactive
30 | COCC(=O)N1CC[C@@H]2[C@H]1c1cc(-c3ccc(F)cc3)ccc1N(C)[C@H]2CO | inactive
31 | CC(C)OC(=O)C(=O)NNc1ccccc1 | inactive
32 | C=CCNc1n[nH]c(=S)s1 | inactive
33 | CN1C(=O)C(c2nnc(Nc3cccc4ccccc34)s2)C2CC1(C)Oc1ccccc12 (centres undefined) | inactive

Same assay, conditions: recombinant TcdB glycohydrolase activity, at 21 µM (top of the series)

Row | SMILES | activity change, negative = inhibition
34 | COCC(=O)N1CC[C@@H]2[C@H]1c1cc(-c3cccc(OC)c3)ccc1N(C)[C@H]2CO | inactive
